Data from PMC12017328, “RNA toehold switch-based reporter assay to assess bacterial uptake of antisense oligomers” (mBio, 2025).

Columns and labels:
[1] = test system: Salmonella, UPEC 536, E. coli MG1655 and BW25113 expressing TS7-Mut_9::sfGFP; test: Toehold switch reporter assay, flow cytometry, statements for all strains; type: cell-based, Salmonella enterica; E. coli; conditions: CPP conjugated to PNA_toe, 5 µM; for Dynamics of sfGFP upregulation: measured at 4, 6 and 17 h, all strains
Description: According to previous RNA-seq analyses ([12], [13], [22]), CPP-PNAs can strongly downregulate target mRNAs within 15 min. […] We therefore repeated the screen conducted and assayed fluorescence by flow cytometry at 4, 6, and 17 h post-treatment. […] The level of upregulation observed in the E. coli K12 strains was again substantially lower than in Salmonella and UPEC 536. […] This might be related to the stability of KFF in the culture media.
Fig 9 Flow cytometric analysis of fluorescence of sfGFP informs on delivery efficiency of CPPs. Bacterial cultures expressing the TS7-Mut_9::sfGFP reporter construct treated with the indicated CPP-PNA_toe constructs at 5 µM each. The median fluorescence intensity of sfGFP was measured after 4 h (black bars), 6 h (dark gray bars), and 17 h (light gray bars) of treatment using flow cytometry. Relative upregulation of sfGFP is shown and was calculated by dividing the median fluorescence intensity of the test samples by the median fluorescence intensity of the control samples, to which water was added. Error bars indicate the standard deviation calculated from two independent experiments.
(§1) Overnight cultures of respective bacterial strains (listed in Table S5) were diluted 1:100 in fresh MHB and grown to OD600 0.3. Overnight and secondary cultures were prepared with or without chloramphenicol (20 µg/mL) depending on the antibiotic resistance profile of the strain. Ninty-five microliters of the 0.3 OD600 bacterial suspension was distributed in the 96-well plate and mixed with 5 µL water or 20× CPP PNA working solutions (150 µM, 100 µM or 50 µM stocks in water). An equivalent volume of water was added to the bacteria to serve as untreated control. For testing the activity in other growth media (M9 minimal medium and LB), the bacteria were cultured in the respective media and treated as described above.
(§2) Bacterial cells were treated as described above, fixed with 4% paraformaldehyde (PFA) in phosphate-buffered saline (PBS) after the indicated time points, and stained with 1 µg/mL DAPI for flow cytometric measurement of DAPI-positive bacterial cells. Cell suspensions were diluted by a factor of ~100–1,000 in PBS and sampled from 96-well plates to achieve ~2,000 counts/s for flow cytometric measurements. Flow cytometry was performed using the Agilent Novocyte flow cytometer with a high-throughput sampler, and 100,000 events were recorded per sample. The DAPI fluorescence was detected using the Pacific Blue channel; sfGFP and mNeon were detected in the FITC channel, and mCherry fluorescence in the PE-Texas Red channel. The lower threshold for FSC-H was set to 2,000 to eliminate the potential artifacts from smaller particles such as dust, bubbles, or cell debris. The wild-type strains without plasmids served as a control to detect the background fluorescence, termed bacterial background. A contour plot with FSC and SSC, each with bins defined on a logarithmic scale was used to select singlets. The gating strategy is described in Fig.S6. The median fluorescence intensity was used for calculating the fold upregulation of fluorescence. Flow cytometry data sets were analyzed using the Novocyte software (Agilent).
(§3) Fold upregulation in median fluorescence intensity (FI) from flow cytometry was calculated as follows:
(§4) fold upregulation = FI (sample)−FI(bacterial background)/FI (water control)−FI(bacterial background)

[2] = test system: Salmonella carrying the TS7::sfGFP reporter plasmid; test: Toehold switch reporter assay, microplate reader; type: cell-based, Salmonella enterica serovar Typhimurium strain SL1344; conditions: CPP conjugated to PNA_toe, 5 µM, TS7-Mut_9::sfGFP, 17 h, MHB; for Fold increase in fluorescence compared to the water-treated control: normalized to OD600
Excerpt: Next, we tested whether 11-mer PNAs can activate the toehold switch in bacteria. We established the reporter assay in Salmonella enterica serovar Typhimurium (referred to as Salmonella hereafter), which we have previously used as a model organism for studying PNAs ([13], [17], [22]). In constructing a reporter plasmid, we cloned the TS7 sequence upstream of the coding sequence of superfolder GFP (sfGFP) and downstream of a constitutive PLtetO-1 promoter in the pXG10-SF vector ([35]) (see Materials and Methods for details). The final product is a fusion protein (TS7::sfGFP) in which the 10 amino acids from the short TS7 coding sequence are genetically linked to the N-terminus of sfGFP. We introduced the reporter plasmid in Salmonella. The bacteria were grown to an early log-phase in standard Mueller-Hinton broth (MHB), commonly used for testing antibacterial activity ([36]). As a proof-of-concept, we chose to deliver the PNAs through conjugation with (KFF)3K, a frequently used CPP (referred to as KFF hereafter). We tested two PNAs, PNA_toe as used above in vitro and a PNA that targets the mid-stem region (PNA_mid) of the switch (Fig. 2A). We treated the bacterial culture with varying concentrations (2.5 µM, 5 µM, or 7.5 µM) of the KFF-PNAs in a microtiter plate, recording GFP fluorescence and turbidity as bacterial growth continued.
as §1
(§5) The PNA-treated samples were incubated in the plate reader for 4–24 h at 37°C, with continuous double-orbital shaking (237 counts per minute). The fluorescence (λex 480 nm/λem 510 nm) and OD600 were recorded in a Synergy H1 plate reader (Biotek) by measuring every 20 min. The bacteria were sampled at various time points post-treatment and further analyzed by flow cytometry.
(§6) Normalization of fluorescence intensity (FInorm) = FI (sample)−FI (medium background)/OD
Fold upregulation in fluorescence intensity (FI) from the plate reader was calculated as follows:
fold upregulation = FI (normalized sample)/FI (normalized control)

[3] = test system: Salmonella carrying the TS7::sfGFP reporter plasmid; test: Toehold switch reporter assay, flow cytometry; type: cell-based, Salmonella enterica serovar Typhimurium strain SL1344
Description: as §1, §5, §2, §3, §4

[4] = test system: Salmonella ΔsbmA mutant carrying TS7-Mut_9::sfGFP; test: Toehold switch reporter assay, flow cytometry, ΔsbmA mutant; type: cell-based, Salmonella enterica serovar Typhimurium; conditions: 5 µM, 4 h
Excerpt: To confirm that activation of the toehold-switch reporter correlates with successful uptake of PNAs, we used a Salmonella ΔsbmA mutant strain unable to express the inner membrane transporter SbmA. […] In the ΔsbmA strain, treatment with KFF-PNA_toe triggered only marginal GFP expression in a small subpopulation of cells (ca 20%) as opposed to nearly 100% of all cells in the corresponding wild-type strain (Fig. 6A). The overall fluorescence intensity (FI) of the ΔsbmA mutant was also much lower than the wild-type strain (Fig. 6B).
Fig 6 Flow cytometric analysis of CPP-PNA uptake using the toehold switch reporter in a ΔsbmA mutant of Salmonella. […] (B) Median fluorescence intensity values for water-treated control (Control, black) and PNA-treated (KFF-PNA_toe, orange) samples are given in the plots. […]
(§7) Bacterial cells were treated as described above, fixed with 4% paraformaldehyde (PFA) in phosphate-buffered saline (PBS) after the indicated time points, and stained with 1 µg/mL DAPI for flow cytometric measurement of DAPI-positive bacterial cells. […] Flow cytometry was performed using the Agilent Novocyte flow cytometer with a high-throughput sampler, and 100,000 events were recorded per sample. The DAPI fluorescence was detected using the Pacific Blue channel; sfGFP and mNeon were detected in the FITC channel, and mCherry fluorescence in the PE-Texas Red channel. […]

[5] = test system: E. coli BW25113, MG1655 and UPEC 536 carrying TS7-Mut_9::sfGFP; test: Toehold switch reporter assay, microplate reader, E. coli strains; type: cell-based; conditions: CPP conjugated to PNA_toe; 5 µM; 17 h; MHB; all three E. coli strains
Excerpt: Having established the CPP screening assay in Salmonella, we next tested it in E. coli. We chose the E. coli K12 strains BW25113 and MG1655, and the uropathogenic isolate E. coli 536 (UPEC 536). […] To test if the low fluorescence was due to lower sfGFP protein levels, we performed a western blot analysis after treating the bacteria with CPP-PNAs (Fig. S4). The upregulation of sfGFP protein correlated with fluorescence upregulation. The E. coli K12 strains were less susceptible than Salmonella. For these strains, a more sensitive method compared to the microplate reader such as flow cytometry might provide better results.
Fig 8 Examining the performance of the toehold switch assay for screening of CPPs against E. coli. Various E. coli strains carrying the TS7-Mut_9::sfGFP encoding plasmid were treated with different CPP-PNA_toe constructs at 5 µM. As negative control, an equal volume of water (Control) was added instead. (A) Fluorescence intensity of sfGFP was recorded in a microplate reader for 17 h post-treatment measured in a microplate reader. (B) Upregulation in sfGFP fluorescence calculated relative to the water control based on the normalized fluorescence intensities at 17 h post-treatment. The experiment was performed two times, and bars indicate the mean value; error bars indicate the standard deviation from two independent experiments.
Overnight cultures of respective bacterial strains (listed in Table S5) were diluted 1:100 in fresh MHB and grown to OD600 0.3. […]
as §5, §6
Fold upregulation in fluorescence intensity (FI) from the plate reader was calculated as follows: […]

[6] = cited from earlier work
Excerpt: (§8) For example, we observed a rapid but transient increase in fluorescence for some CPPs (e.g., KFF) and a sustained increase for others (e.g., RXR). This variation can likely be explained by the chemistry and stability of these carriers. […] Therefore, the different dynamics in fluorescence increase c ...

[7] = test system: E. coli BW25113 expressing TS7-Mut_9::sfGFP; test: Toehold switch reporter assay, flow cytometry; type: cell-based; conditions: CPP conjugated to PNA_toe, 5 µM, 17 h
Description: as §1, with “For testing the activity in other growth media (M9 minimal medium and LB), the bacteria were cultured in the respective media and treated as described above.” left out
as §5
as §7, with “sample.” for “sample. The DAPI fluorescence was detected using the Pacific Blue channel; sfGFP and mNeon were detected in the FITC channel, and mCherry fluorescence in the PE-Texas Red channel.”

bacteria = conditions: CPP conjugated to anti-acpP PNA; ref [13]; cited from earlier work
Excerpt: as §8

GRRRRRRRRRPPQ [R9-TAT, cell-penetrating peptide …]
Dynamics of sfGFP upregulation [1]: only showed upregulation at the 17 h time point | Fold increase in fluorescence compared to the water-treated control [2]: negligible upregulation

KFFKFFKFFK [KFF-PNA_ctrl]
Activation of GFP expression ([3]; TS7::sfGFP, 7.5 µM, 4 h post-treatment, MHB): did not activate GFP expression

KFFKFFKFFK [KFF-PNA_toe]
GFP positive population [4]: ~20% | Upregulation of the reporter (median fluorescence vs water control) ([3]; TS7-Mut_9::sfGFP, 5 µM, 4 h, Luria broth (LB)): 6- to 8 fold | Activation of the reporter (median fluorescence vs water control) ([3]; TS7-Mut_9::sfGFP, 5 µM, 4 h, M9 minimal medium): 50- to 60 fold | Activation of the reporter (median fluorescence vs water control) ([3]; TS7-Mut_9::sfGFP, 5 µM, 4 h, MHB, two independent experiments): 50- to 60 fold | Activation of the reporter compared with the original switch ([3]; TS7-Mut_13::sfGFP, 5 µM, 4 h, MHB): no improvement over the original switch | Activation of the reporter compared with the original switch ([3]; TS7-Mut_18::sfGFP, 5 µM, 4 h, MHB): no improvement over the original switch | Upregulation of the reporter (median fluorescence vs water control) ([3]; original TS7::sfGFP, 4 h, MHB): around 30 fold | GFP positive population ([3]; wild-type, TS7-Mut_9::sfGFP, 5 µM, 4 h): ~100%

KFFKFFKFFK [cell-penetrating peptide …, carrier for PNA]
Reporter activation (sfGFP fluorescence vs water control) [5]: highest reporter activation | Change of fluorescence over time ([1]; 4, 6 and 17 h): decrease | Dynamics of sfGFP upregulation [1]: rapid upregulation at 4 h | Fold increase in fluorescence compared to the water-treated control [2]: highest fold increase in fluorescence | Speed of increase in fluorescence signal [2]: rapid increase in fluorescence signal | Stability to proteases and in culture medium [6]: sensitive to proteases and degraded in nutrient-rich media such as MHB

RKKRRQRR [Seq35, cell-penetrating peptide RKKRRQRR]
Dynamics of sfGFP upregulation [1]: only showed upregulation at the 17 h time point

RQIKIWFQNRRMKWKK [ANT, cell-penetrating peptide …]
Dynamics of sfGFP upregulation [1]: rapid upregulation at 4 h | Fold increase in fluorescence compared to the water-treated control [2]: highest fold increase in fluorescence

RRRQRRKKRGY [Seq118, cell-penetrating peptide …]
Reporter activation (fold upregulation of sfGFP vs water control) [7]: fivefold | Dynamics of sfGFP upregulation [1]: only showed upregulation at the 17 h time point

RRRRR [R5, cell-penetrating peptide RRRRR]
Dynamics of sfGFP upregulation [1]: only showed upregulation at the 17 h time point

RRWQW [L5a, cell-penetrating peptide RRWQW]
Fold increase in fluorescence compared to the water-treated control [2]: negligible upregulation

RXRRXRRXRRXRXB [RXR-acpP, RXR conjugated to anti-acpP PNA …]
Time after which bacteria are eradicated (bacteria): 15 min

RXRRXRRXRRXRXB [cell-penetrating peptide RXRRXRRXRRXRXB, carrier for PNA]
Reporter activation (sfGFP fluorescence vs water control) [5]: highest reporter activation | Dynamics of sfGFP upregulation [1]: rapid upregulation at 4 h | Fold increase in fluorescence compared to the water-treated control [2]: highest fold increase in fluorescence | Speed of increase in fluorescence signal [2]: rapid increase in fluorescence signal | Stability to proteolytic degradation ([6]; unconjugated carrier peptide, ref [47]): resistant to proteolytic degradation

VALLPAVLLA [Seq23, cell-penetrating peptide …]
Reporter activation (sfGFP fluorescence vs water control) [5]: least effective PNA carrier | Dynamics of sfGFP upregulation [1]: least active carrier | Fold increase in fluorescence compared to the water-treated control [2]: none
